What was measured:
[1] = target: T1, H. pylori inosine-5′-monophosphate dehydrogenase (HpIMPDH) (Helicobacter pylori, UniProt P56088); assay: In vitro HpIMPDH inhibition assay (NADH fluorescence); type: biochemical; design: HpIMPDH inhibitory activity: unit not given here
T1 sequence (P56088 1-481): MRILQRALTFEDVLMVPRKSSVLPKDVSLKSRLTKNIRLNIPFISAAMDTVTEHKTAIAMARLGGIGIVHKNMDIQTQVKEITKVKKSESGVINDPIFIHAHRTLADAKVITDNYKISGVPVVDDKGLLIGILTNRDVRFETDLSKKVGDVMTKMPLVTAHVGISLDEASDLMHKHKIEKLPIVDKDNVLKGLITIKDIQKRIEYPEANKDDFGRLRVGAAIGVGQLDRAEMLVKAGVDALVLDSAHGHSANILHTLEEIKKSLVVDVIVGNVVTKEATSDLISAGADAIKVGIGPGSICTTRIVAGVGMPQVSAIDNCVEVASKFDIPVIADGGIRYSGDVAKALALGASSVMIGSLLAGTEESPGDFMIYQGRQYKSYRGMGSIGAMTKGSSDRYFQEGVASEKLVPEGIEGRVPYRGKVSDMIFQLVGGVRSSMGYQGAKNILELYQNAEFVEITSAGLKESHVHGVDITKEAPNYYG
Method: The assay was carried out according to Galal[40] and was described in detail in the supplementary file.
(§1) Thus, irigenin was selected to test its HpIMPDH inhibitory activity by monitoring NADH production at concentration range of 10–0.078 µM compared to clarithromycin as standard drug. Also, to examine irigenin selectivity toward the bacterial IMPDH, human hIMPDH2 inhibition potential was assayed.
The assay was carried out in a final volume of two hundred μL in black 96-well plate (Tarsons Products Pvt. Ltd., Kolkata, India) with a reaction buffer composed of one hundred mM KCl, fifty mM Tris–HCl (pH 8.6), and one mM dithiothreitol (DTT). One hundred nM H. pylori inosine-5′-monophosphate dehydrogenase (HpIMPDH) in the presence/absence of the tested compound were used. The assay mixture was then incubated at 37 °C for 10 min, and the reaction was initiated by the adding 250 μM of inosine 5ʹ‐monophosphate (IMP) and 300 μM of nicotinamide adenine dinucleotide (NAD^+) substrate buffer. The assay was allowed to proceed for 45 min at 37 °C.
The formed NADH was measured by recording the fluorescence (excitation 340 nm, emission 440 nm) using PerkinElmer EnVision Multilabel Reader (Waltham, MA) at an interval of one min. DMSO and clarithromycin were used as vehicle control and positive control, respectively. The concentration of the tested sample leading to 50% HpIMPDH inhibition (IC50) was estimated.

[2] = system: RAW 264.7 macrophage cell line (NO); assay: nitric oxide (NO) inhibitory activity in lipopolysaccharide-stimulated macrophages; type: cell-based, murine; conditions: Mus musculus, RAW264.7; RAW 264.7 cells, 1 µg/mL lipopolysaccharide
Method: The detailed procedures were described in the supplementary file.
The cell was incubated at 37 °C in 5% carbon dioxide. RAW 264.7 cells were seeded onto a 96-well plate (1×10^5 cells/well) and incubated for 24 h. […] Followed by incubation, the cells stimulated with 1µg/mL of lipopolysaccharide for another 24 h. The supernatant was gently transferred to new 96-well plates and used for NO determination. L-N 6 - (1-iminoethyl) lysine hydrochloride), is used as standard drug. The absorbance (Abs) was measured in a microplate reader at 540 nm ^3. The percentage inhibition was calculated using the following formula:
Inhibition (%) = 1-[Control-Test] Control × 100.

[3] = target: T2, Human inosine-5′-monophosphate dehydrogenase (hIMPDH2) (Homo sapiens, UniProt P12268); assay: In vitro hIMPDH2 inhibition assay (NADH absorbance at 340 nm); type: biochemical; design: key to hIMPDH2 inhibitory activity: % hIMPDH2 inhibition; conditions: for hIMPDH2 inhibitory activity: in % (unit assumed)
T2 construct: purchased NovoCIB SAS (Lyon, France)
Method: Human inosine-5′-monophosphate dehydrogenase (hIMPDH2) was purchased from NovoCIB SAS (Lyon, France). […] The detailed procedures were described in the supplementary file.
as §1
Human inosine-5′-monophosphate dehydrogenase (hIMPDH2) was purchased from NovoCIB SAS (Lyon, France). […] The assay was carried out in 96-well plates (Tarsons, 980040). The reaction buffer consisted of hundred mM KCl, hundred mM Tris–HCl (pH 8.6), and five mM DTT, 4% v/v DMSO with or without the tested compound and 0.15 mU of purified hIMPDH2 enzyme per well (from 1.5 mg/mL stock concentration). The enzyme stock solution final volume was 2 μL per well, which was insignificant to cause final assay buffer composition change. Addition of (substrate buffer) 0.2 mM of IMP and 0.2 mM of NAD^+ initiated the assay, then it was allowed to proceed for 30 min at 37 °C. The formed NADH was measured by reading the absorbance at 340 nm. […] The concentration of the tested sample leading to 50% hIMPDH2 inhibition (IC50) was estimated.

[4] = sample conc. 0.078 (range 10–0.078 µM)
[5] = sample conc. 0.156 (range 10–0.078 µM)
[6] = sample conc. 0.313 (range 10–0.078 µM)
[7] = sample conc. 0.625 (range 10–0.078 µM)
[8] = sample conc. 1.25 (range 10–0.078 µM)
[9] = sample conc. 2.5 (range 10–0.078 µM)
[10] = sample conc. 5 (range 10–0.078 µM)
[11] = sample conc. 10 (range 10–0.078 µM)

COc1cc(-c2coc3cc(O)c(OC)c(O)c3c2=O)cc(O)c1OC [Irigenin (P3), 3′,5,7-trihydroxy-4′,5′,6 trimethoxyisoflavone]
IC50 [1]: 2.07 ± 1.9 µM
HpIMPDH inhibitory activity [1, 4]: 0.00
HpIMPDH inhibitory activity [1, 5]: 0.00
HpIMPDH inhibitory activity [1, 6]: 6.14 ± 1.90
HpIMPDH inhibitory activity [1, 7]: 10.25 ± 2.80
HpIMPDH inhibitory activity [1, 8]: 24.19 ± 1.70
HpIMPDH inhibitory activity [1, 9]: 59.31 ± 1.40
HpIMPDH inhibitory activity [1, 10]: 71.08 ± 1.30
HpIMPDH inhibitory activity [1, 11]: 83.25 ± 0.58
IC50 [2]: 42.5 ± 1.8 µM
IC50 [3]: > 10 µM
hIMPDH2 inhibitory activity [3, 4]: 0.00
hIMPDH2 inhibitory activity [3, 5]: 0.00
hIMPDH2 inhibitory activity [3, 6]: 0.00
hIMPDH2 inhibitory activity [3, 7]: 0.00
hIMPDH2 inhibitory activity [3, 8]: 0.00
hIMPDH2 inhibitory activity [3, 9]: 4.81 ± 0.91
hIMPDH2 inhibitory activity [3, 10]: 10.36 ± 0.72
hIMPDH2 inhibitory activity [3, 11]: 22.68 ± 1.00

— paper PMC9259591, “Irigenin, a novel lead from Iris confusa for management of Helicobacter pylori infection with selective COX-2 and HpIMPDH inhibitory potential” (Scientific Reports, 2022)
